From ChEMBL document CHEMBL5126521, “Analgesic Opioid Ligand Discovery Based on Nonmorphinan Scaffolds Derived from Natural Sources” (J Med Chem, 2022)
Bridge positions count the residues as written; N and C are the ends. Square brackets hold non-standard residues; d marks the D form. Peptide text beside a SMILES is read from it. ξ: configuration not given here. Dmt = Cc1cc(O)cc(C)c1C[C@H](N)C(=O)O; ξGly(octyl) = CCCCCCCCC(N)C(=O)O; Tic = O=C(O)[C@@H]1Cc2ccccc2CN1

Legend:
[1] = Degradation half life in rat brain homogenate; type: ADME, tissue-based
[2] = Half life in mouse liver microsomes; type: ADME, Microsome
[3] = Toxicity in icv dosed C57BL/6J mouse assessed as antinociceptive activity tolerance; type: organism-based; conditions: in vivo, icv_or_intrathecal
[4] = tested on: Mus musculus; assay: Antinociceptive activity in icv dosed C57BL/6J mouse assessed as tail withdrawal latency from warm water; type: functional
[5] = target: Delta-type opioid receptor (Mus musculus, UniProt P32300); assay: Displacement of [3H]DPDPE from mouse DOP stably expressed in CHO cell membrane; type: cell membranes
Sequence of Delta-type opioid receptor (Mus musculus, UniProt P32300) (P32300 whole entry): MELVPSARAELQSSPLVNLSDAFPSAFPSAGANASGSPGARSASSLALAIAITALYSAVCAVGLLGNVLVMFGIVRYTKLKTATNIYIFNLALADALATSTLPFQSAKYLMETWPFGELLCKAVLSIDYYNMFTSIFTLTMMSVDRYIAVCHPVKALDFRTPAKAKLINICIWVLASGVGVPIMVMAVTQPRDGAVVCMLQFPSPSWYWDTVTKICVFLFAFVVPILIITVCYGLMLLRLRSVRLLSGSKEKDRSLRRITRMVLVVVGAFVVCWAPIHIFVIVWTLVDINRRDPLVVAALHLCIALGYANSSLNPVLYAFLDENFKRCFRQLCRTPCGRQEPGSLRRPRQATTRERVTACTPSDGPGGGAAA

[6] = target: T1, Kappa-type opioid receptor (Rattus norvegicus, UniProt P34975); assay: Displacement of [3H]diprenorphine from rat KOP stably expressed in CHO cell membrane; type: cell membranes
T1 sequence (P34975 whole entry): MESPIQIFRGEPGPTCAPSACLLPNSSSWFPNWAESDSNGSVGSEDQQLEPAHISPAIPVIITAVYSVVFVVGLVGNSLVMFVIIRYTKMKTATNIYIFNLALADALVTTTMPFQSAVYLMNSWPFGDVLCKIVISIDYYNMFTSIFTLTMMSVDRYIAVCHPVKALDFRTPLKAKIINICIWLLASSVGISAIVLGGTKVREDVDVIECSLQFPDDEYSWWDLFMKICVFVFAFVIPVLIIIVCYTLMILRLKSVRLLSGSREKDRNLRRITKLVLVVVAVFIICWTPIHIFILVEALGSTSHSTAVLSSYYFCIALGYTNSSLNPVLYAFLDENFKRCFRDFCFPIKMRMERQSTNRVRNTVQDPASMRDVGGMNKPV

[7] = target: T2, Mu-type opioid receptor (Homo sapiens, UniProt P35372); assay: Antagonist activity at human MOP stably expressed in CHO cell membrane assessed as [35S]GTPgammaS binding; type: functional, cell membranes
T2 sequence (P35372 whole entry): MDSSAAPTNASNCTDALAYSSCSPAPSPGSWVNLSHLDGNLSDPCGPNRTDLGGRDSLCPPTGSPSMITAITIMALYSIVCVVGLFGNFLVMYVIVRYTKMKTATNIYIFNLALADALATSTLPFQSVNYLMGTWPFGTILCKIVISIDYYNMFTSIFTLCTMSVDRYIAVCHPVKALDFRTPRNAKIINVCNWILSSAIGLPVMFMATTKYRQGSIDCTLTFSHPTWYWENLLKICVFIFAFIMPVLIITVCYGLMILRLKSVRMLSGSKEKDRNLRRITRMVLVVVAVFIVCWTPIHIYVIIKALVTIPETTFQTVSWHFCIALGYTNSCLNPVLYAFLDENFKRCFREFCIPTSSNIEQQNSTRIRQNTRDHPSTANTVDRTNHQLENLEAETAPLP

[8] = target: T3, Kappa-type opioid receptor (Homo sapiens, UniProt P41145); assay: Antagonist activity at human KOP stably expressed in CHO cell membrane assessed as [35S]GTPgammaS binding; type: functional, cell membranes
T3 sequence (P41145 whole entry): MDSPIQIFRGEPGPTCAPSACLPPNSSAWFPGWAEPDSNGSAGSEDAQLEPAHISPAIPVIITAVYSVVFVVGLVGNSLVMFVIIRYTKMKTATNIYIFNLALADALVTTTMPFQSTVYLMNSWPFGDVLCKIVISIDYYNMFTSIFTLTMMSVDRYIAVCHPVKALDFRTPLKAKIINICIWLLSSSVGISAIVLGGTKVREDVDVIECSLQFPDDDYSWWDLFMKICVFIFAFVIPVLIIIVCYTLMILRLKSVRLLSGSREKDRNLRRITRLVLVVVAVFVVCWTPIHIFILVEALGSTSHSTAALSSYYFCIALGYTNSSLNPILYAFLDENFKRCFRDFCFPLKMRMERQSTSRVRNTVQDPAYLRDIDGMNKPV

[9] = tested on: Mus musculus; assay: Antinociceptive activity in Swiss albino mouse assessed tail flick response in warm water administered icv; type: functional
[10] = target: T1, Kappa-type opioid receptor; assay: Inhibition of Wistar rat brain membrane KOP; type: cell membranes
[11] = target: T2, Mu-type opioid receptor; assay: Displacement of [3H]DAMGO from MOP (unknown origin) stably expressed in CHO cell membrane incubated for 90 mins by scintillation counter analysis; type: cell membranes
[12] = target: T4, Delta-type opioid receptor (Homo sapiens, UniProt P41143); assay: Displacement of [3H]DPDPE from DOP (unknown origin) stably expressed in CHO cell membrane incubated for 90 mins by scintillation counter analysis; type: cell membranes
T4 sequence (P41143 whole entry): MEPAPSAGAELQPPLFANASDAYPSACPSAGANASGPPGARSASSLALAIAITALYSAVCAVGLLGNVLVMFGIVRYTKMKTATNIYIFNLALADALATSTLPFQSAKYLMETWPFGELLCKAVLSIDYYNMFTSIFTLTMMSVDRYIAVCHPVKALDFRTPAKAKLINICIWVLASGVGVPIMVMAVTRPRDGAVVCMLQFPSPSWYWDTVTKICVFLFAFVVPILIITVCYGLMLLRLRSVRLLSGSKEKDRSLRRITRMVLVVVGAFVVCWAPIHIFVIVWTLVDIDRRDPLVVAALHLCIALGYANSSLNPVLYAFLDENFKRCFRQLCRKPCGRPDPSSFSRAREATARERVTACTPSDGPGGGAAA

[13] = target: T3, Kappa-type opioid receptor; assay: Displacement of [3H]diprenorphine from KOP (unknown origin) stably expressed in CHO cell membrane incubated for 90 mins by scintillation counter analysis; type: cell membranes
[14] = tested on: Mus musculus; assay: Antinociceptive activity in ip dosed mouse assessed as tail flick latency; type: functional
[15] = tested on: Rattus norvegicus; assay: Antinociceptive activity in Sprague-Dawley rat assessed as tail flick response in warm water administered iv; type: functional
[16] = target: T2, Mu-type opioid receptor; assay: Agonist activity at MOP in human SH-SY5Y cells assessed as forskolin stimulated cAMP accumulation incubated for 30 mins by Biotrak-EIA kit method; type: functional, cell-based
[17] = target: T4, Delta-type opioid receptor; assay: Binding affinity to DOP (unknown origin)
[18] = target: T4, Delta-type opioid receptor; assay: Inhibition of DOP (unknown origin)
[19] = target: T3, Kappa-type opioid receptor; assay: Inhibition of KOP (unknown origin)
[20] = target: T2, Mu-type opioid receptor; assay: Binding affinity to MOP (unknown origin)
[21] = tested on: Mus musculus; assay: Antinociceptive activity in Kunming mouse assessed as heat paw withdrawal measured after 10 secs administered icv; type: functional; conditions: time 10 sec, 10 s
[22] = Stability in mouse serum assessed as half life; type: ADME, cell-free
[23] = Stability in rat brain homogenate assessed as half life; type: ADME, tissue-based
[24] = target: T2, Mu-type opioid receptor; assay: Displacement of [3H]DAMGO from human MOP expressed in CHO-K1 cell membrane incubated for 60 mins by Microscint-counting analysis; type: cell membranes
[25] = target: T4, Delta-type opioid receptor; assay: Displacement of [3H]DPDPE from human DOP expressed in CHO-K1 cell membrane incubated for 60 mins by Microscint-counting analysis; type: cell membranes
[26] = target: T2, Mu-type opioid receptor; assay: Agonist activity at human MOP expressed in CHO-K1 cell membrane assessed as [35S]GTPgammaS binding; type: functional, cell membranes
[27] = target: T2, Mu-type opioid receptor; assay: Agonist activity at human MOP expressed in CHO-K1 cell membrane assessed as [35S]GTPgammaS binding relative to control; type: functional, cell membranes; conditions: filed as agonist
[28] = tested on: Rattus norvegicus; assay: Antinociceptive activity in Sprague-Dawley rat assessed as tail flick response in warm water administered icv; type: functional
[29] = target: T2, Mu-type opioid receptor; assay: Agonist activity at human recombinant MOP expressed in CHO cells by calcium mobilization assay; type: functional, cell-based
[30] = target: Delta-type opioid receptor (Rattus norvegicus, UniProt P33533); assay: Inhibition of Wistar rat brain membrane DOP; type: cell membranes
Sequence of Delta-type opioid receptor (Rattus norvegicus, UniProt P33533) (P33533 whole entry): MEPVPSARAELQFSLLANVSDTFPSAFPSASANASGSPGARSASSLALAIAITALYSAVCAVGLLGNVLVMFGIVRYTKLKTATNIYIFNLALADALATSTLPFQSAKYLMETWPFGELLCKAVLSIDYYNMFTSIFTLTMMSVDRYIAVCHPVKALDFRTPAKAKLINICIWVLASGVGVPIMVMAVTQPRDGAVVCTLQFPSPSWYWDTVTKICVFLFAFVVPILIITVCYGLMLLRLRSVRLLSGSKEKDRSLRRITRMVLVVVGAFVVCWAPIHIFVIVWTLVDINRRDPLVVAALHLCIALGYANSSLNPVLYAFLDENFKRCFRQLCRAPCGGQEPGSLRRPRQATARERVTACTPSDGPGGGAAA

[31] = target: Mu-type opioid receptor (Rattus norvegicus, UniProt P33535); assay: Inhibition of Wistar rat brain membrane MOP; type: cell membranes
Sequence of Mu-type opioid receptor (Rattus norvegicus, UniProt P33535) (P33535 whole entry): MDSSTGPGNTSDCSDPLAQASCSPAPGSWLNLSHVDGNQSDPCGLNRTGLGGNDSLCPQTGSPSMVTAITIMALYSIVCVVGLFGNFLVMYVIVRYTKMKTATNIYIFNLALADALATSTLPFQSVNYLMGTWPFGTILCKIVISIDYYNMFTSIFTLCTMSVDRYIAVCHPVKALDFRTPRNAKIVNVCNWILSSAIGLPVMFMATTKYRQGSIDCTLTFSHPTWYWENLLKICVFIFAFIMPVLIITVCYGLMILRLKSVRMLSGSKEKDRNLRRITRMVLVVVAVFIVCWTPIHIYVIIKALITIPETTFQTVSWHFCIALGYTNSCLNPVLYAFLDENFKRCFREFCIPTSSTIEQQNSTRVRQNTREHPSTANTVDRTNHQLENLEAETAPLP

## Cc1cc(O)cc(C)c1C[C@H](N)C(=O)N1Cc2ccccc2C[C@H]1C(=O)N[C@@H](Cc1ccccc1)C(=O)N[C@@H](Cc1ccccc1)C(N)=O (H-[Dmt][Tic]FF-NH2)
[1]
  half-life: 6.1 min

## O=C1N[C@@H](Cc2ccccc2)C(=O)N2CCC[C@@H]2C(=O)N[C@H](Cc2ccccc2)C(=O)N[C@H]1Cc1c[nH]c2ccccc12
[2]
  half-life: ≤ 30 min
[3]
  ED50: 125 nmol
[4]
  ED50: 20.4 nmol

## C[C@H]1NC(=O)[C@H](Cc2ccccc2)NC(=O)[C@H]2CCCN2C(=O)[C@H](Cc2ccccc2)NC1=O
[5]
  Ki: 10 µM
[6]
  Ki: 1.72 µM
[7]
  IC50: 1.1 µM
[8]
  IC50: 0.922 µM
[4]
  ED50: 0.28 nmol

## NC(=O)[C@@H]1CC(=O)NCCCC[C@@H](NC(=O)[C@@H](N)Cc2ccc(O)cc2)C(=O)N[C@@H](Cc2ccccc2)C(=O)N[C@@H](Cc2ccccc2)C(=O)N1 (H-Y[dK]FFD-NH2; lactam 2-5)
[9]
  ED50: 0.06 nmol
[10]
  IC50: 0.00236 µM

## C[C@@H]1C(=O)N[C@@H](Cc2ccccc2)C(=O)N[C@@H](Cc2c[nH]c3ccccc23)C(=O)N[C@@H](Cc2ccccc2)C(=O)N1C
[11]
  Ki: 0.14 µM
[12]
  Ki: 1.37 µM
[13]
  Ki: 0.113 µM
[4]
  ED50: 2.43 nmol

## COC(=O)[C@@H]1C[C@H](O[C@@H]2CCCCO2)C(=O)[C@H]2[C@@]1(C)CC[C@H]1C(=O)O[C@H](c3ccoc3)C[C@]21C
[14]
  ED50: 1.4 mg/kg

## CCCCCCCCC(N)C(=O)N[C@@H](Cc1c(C)cc(O)cc1C)C(=O)N1CCC[C@H]1C(=O)N[C@@H](Cc1c[nH]c2ccccc12)C(=O)N[C@@H](Cc1ccccc1)C(N)=O (some centres undefined) (H-[ξGly(octyl)][Dmt]PWF-NH2)
[15]
  ED50: 1 µmol/kg
[16]
  EC50: 0.0013 µM

## C[C@@H]1NC(=O)[C@@H](Cc2c[nH]c3ccccc23)NC(=O)[C@H](Cc2ccccc2)NC(=O)[C@H]2CCCN2C1=O
[6]
  Ki: 0.00307 µM
[7]
  IC50: 0.00808 µM
[8]
  IC50: 0.00081 µM
[4]
  ED50: 1.99 nmol

## O=C1N[C@H](Cc2c[nH]c3ccccc23)C(=O)N[C@H](Cc2ccccc2)C(=O)N2CCC[C@@H]2C(=O)N[C@H]1Cc1ccccc1
[2]
  half-life: ≤ 30 min
[11]
  Ki: > 100 µM
[13]
  Ki: > 100 µM
[4]
  ED50: 2.39 nmol

## CC[C@H]1CN2CCc3c([nH]c4cccc(OC)c34)[C@@H]2C[C@@H]1/C(=C\OC)C(=O)OC
[17]
  Ki: > 10 µM
[18]
  IC50: > 10 µM
[19]
  IC50: 10 µM

## COC(=O)[C@H](Cc1ccccc1)NC(=O)[C@H](Cc1ccccc1)NC(=O)[C@@H]1CCCN1C(=O)[C@@H](N)Cc1ccc(O)cc1
[20]
  Ki: 0.00907 µM
[17]
  Ki: > 10 µM
[21]
  ED50: 3 nmol
[22]
  half-life: 30.1 min
[23]
  half-life: 47.6 min

## C[C@@H]1NC(=O)[C@H]2CCCN2C(=O)[C@H](Cc2ccccc2)NC(=O)[C@H](Cc2c[nH]c3ccccc23)NC1=O
[11]
  Ki: 0.533 µM
[12]
  Ki: > 10 µM
[13]
  Ki: 0.663 µM

## NC(=O)[C@@H]1CC(=O)NCCCC[C@@H](NC(=O)[C@@H](N)Cc2ccc(O)cc2)C(=O)N[C@@H](Cc2c[nH]c3ccccc23)C(=O)N[C@@H](Cc2ccccc2)C(=O)N1
[24]
  Ki: 0.00049 µM
[25]
  Ki: 0.083 µM
[26]
  EC50: 0.00094 µM
[27]
  Emax: 100%
[28]
  ED50: 0.2 nmol

## C[C@@H]1NC(=O)[C@H](Cc2ccccc2)NC(=O)[C@H]2CCCN2C(=O)[C@H](Cc2ccccc2)NC1=O
[11]
  Ki: 0.687 µM
[12]
  Ki: > 10 µM
[13]
  Ki: 1.55 µM
[4]
  ED50: 6.97 nmol

## CCNC(=O)C[C@H](NC(=O)[C@H](Cc1ccccc1)NC(=O)[C@H](Cc1ccccc1)NC(=O)[C@@H](CCCCNC(=O)C[C@H](NC(=O)[C@H](Cc1ccccc1)NC(=O)[C@H](Cc1ccccc1)NC(=O)CNC(=O)[C@@H](N)Cc1ccc(O)cc1)C(N)=O)NC(=O)[C@@H](N)Cc1ccc(O)cc1)C(N)=O
[29]
  EC50: 0.00501 µM
[9]
  ED50: 1.96 nmol
[30]
  IC50: > 1 µM
[31]
  IC50: 0.0262 µM
[10]
  IC50: 0.032 µM

## O=C1N[C@@H](Cc2ccccc2)C(=O)N2CCC[C@@H]2C(=O)N[C@@H](Cc2ccccc2)C(=O)N[C@H]1Cc1c[nH]c2ccccc12
[2]
  half-life: 49 min
[3]
  ED50: 5.23 nmol
[4]
  ED50: 1.74 nmol
